In patent US4603125A, “Substituted o-phenylenediamine acridine compounds having antitumor activity” (Development Finance Corporation of New Zealand, priority 1982, dated 1986):

Assays:
tumour = experiment: antitumour activity in in vivo test systems (summary); conditions: compared to unsubstituted AMSA and m-AMSA (for compound 1)
Excerpt: The compounds of general formula (I) and particularly the examples listed in Tables I and II, have antitumor activity in in vivo test systems, as shown by the data of Tables III and IV.

[1] = Rm from reversed phase partition chromatography (lipophilic-hydrophilic balance)
Excerpt: Rm=a measure of the compound's lipophilic-hydrophilic balance from reversed phase partition chromatography. Rm is linearly related to partition coefficients obtained in the 1-octanol/water system.

Lewis lung carcinoma = Lewis lung carcinoma in vivo (increase in lifespan); conditions: at OD; i.v. tumour, days 1, 5 and 9; >40% statistically significant
Excerpt: LL. is the Lewis lung carcinoma.

## CNc1cc(NS(C)(=O)=O)ccc1Nc1c2ccccc2nc2ccccc12 [Compound 1]
tumour
  potency and antitumour activity: increased potency and antitumour activity
[1]
  chromatographic logP: 0.17
Lewis lung carcinoma
  ILS (percentage increase in lifespan), Lewis lung: 85%
